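All cell lines were grown in 96-well plates and treated with compound for 48 hours. GI50 marks 50% less growth. TGI marks complete inhibition of growth.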
Key:
Experiment in all cases: growth of human tumour cells (NCI), 48 h
[1] = system: 786-0 renal
[2] = system: HS 578T breast
[3] = system: NCI-H23 lung
[4] = system: NCI-H460 lung
[5] = system: OVCAR-3 ovarian
[6] = system: RPMI-8226 leukemia
[7] = system: SF-295 CNS
[8] = system: SNB-19 CNS
[9] = system: T-47D breast
[10] = system: SR leukemia

SMILES	GI50 [1] [µM]	TGI [1] [µM]	GI50 [2] [µM]	TGI [2] [µM]	GI50 [3] [µM]	TGI [3] [µM]	GI50 [4] [µM]	TGI [4] [µM]	GI50 [5] [µM]	TGI [5] [µM]	GI50 [6] [µM]	TGI [6] [µM]	TGI [7] [µM]	GI50 [8] [µM]	TGI [8] [µM]	GI50 [9] [µM]	TGI [9] [µM]	GI50 [7] [µM]	TGI [10] [µM]	GI50 [10] [µM]
COc1cc(/C=C/C(=O)N2CCN(C(=O)c3cc(OC)c(OC)c(OC)c3)CC2)ccc1OCCCOc1cc2c(cc1OC)C(=O)N1CCC[C@H]1C=N2	0.491	10.6	0.31	0.841	0.296	0.974	0.333	10.3	0.219	0.504	0.431	> 100	0.875	0.362	> 40.3	0.15	0.495	–	–	–
CC(=O)OC1CC2C3CCC4C[C@@H](NC(=O)C=C(C)C)CC[C@]4(C)C3CC[C@]2(C)[C@H]1C(C)N(C)C (some centres undefined)	1.65	3.17	2	5.25	2.55	8.56	0.885	2.65	1.99	7.56	1.66	5.67	4.75	3.63	9.06	1.55	6.08	2.11	–	–
C=C(C(=C)P(=S)(c1ccccc1)c1ccccc1)P(=S)(c1ccccc1)c1ccccc1	–	> 100	–	–	–	> 100	–	> 100	–	> 100	–	> 100	> 100	–	> 100	–	–	–	–	–
OCCN1CCN2C=C(C3CCCC4N(CCO)CCN34)CCC21 (centres undefined)	–	> 100	–	–	–	> 100	–	> 100	–	> 100	–	44.9	> 100	–	> 100	–	–	–	26.3	–
COc1ccc(C2C=C(c3ccc4c(c3)OCO4)Oc3c2c(=O)oc2ccccc32)cc1OC (centres undefined)	–	> 100	–	> 100	–	> 46.2	–	> 100	–	15.5	–	5.29	> 100	–	> 100	–	–	–	0.594	–
Cn1c(/C=C/[N+](=O)[O-])cc2ccccc21	2.15	4.08	–	–	2.73	17.1	3.77	20.9	1.66	3.49	3.18	> 100	> 100	11.1	28.8	2.79	8.61	5.84	8.06	2.16
O=S(=O)(/N=c1/scc(-c2ccccc2)n1-c1ccccc1)c1ccc(N2N=C3c4ccccc4CC3C2c2cccs2)cc1 (centres undefined)	64.2	> 100	60.6	> 100	68	> 100	95.1	> 100	> 100	> 100	51	> 100	> 100	> 100	> 100	> 100	> 100	54.5	–	–
CN1CCN(C)C12C=CC=CC21CC1	–	> 100	–	–	–	> 100	–	> 100	–	> 100	–	> 100	> 100	–	> 100	–	–	–	> 100	–
COC(=O)C1=C(C(=O)OC)C2(C)Nc3ccccc3C2=C(c2ccccc2)C1 (centres undefined)	–	81.4	–	–	–	45.7	–	42.9	–	52.2	–	29.6	58	–	75.5	–	–	–	–	–
CC(=O)Nc1ccc(COC(O)CN2CCCCC2)cc1[N+](=O)[O-] (centres undefined)	–	> 100	–	–	–	> 100	–	> 100	–	> 100	–	> 100	> 100	–	> 100	–	> 100	–	> 100	–
CC1(C)[C@@H](OC(=O)CCC(=O)O)CC[C@]2(C)[C@H]3C(=O)C=C4[C@@H]5C[C@@](C)(C(=O)O)CC[C@]5(C)CC[C@@]4(C)[C@]3(C)CC[C@@H]12	58.8	104	49.6	253	60.1	115	52.6	76	50.4	62.9	50.9	69.9	65	55	141	–	–	48.7	–	–
c1ccc2cc(C[n+]3ccn(CCCCCCCCCCn4cc[n+](Cc5ccc6ccccc6c5)c4)c3)ccc2c1	5.33	32.6	1.03	3.63	0.445	3.35	0.376	10.1	1.95	7.09	0.737	4.17	5.44	–	–	0.491	4.74	0.554	–	–
N/N=c1\c2ccccc2c2cc3c(cc12)/c(=N/N)c1ccccc13	–	> 100	–	–	–	> 100	–	> 100	–	–	–	> 100	> 100	–	> 100	–	–	–	> 100	–
Clc1ccc(-c2c(C3=NCCCN3)nnn2-c2ccccc2)cc1	–	> 100	–	–	–	> 100	–	> 100	–	> 100	–	–	> 100	–	> 100	–	–	–	> 100	–
O=C(/C(=C\c1ccc(Cl)cc1)c1ccccc1)c1ccccc1	–	> 100	–	–	–	> 100	–	> 100	–	–	–	> 100	> 100	–	–	–	–	–	> 100	–
CC1(c2ccccc2)CC(c2cccc([N+](=O)[O-])c2)=NO1 (centres undefined)	–	> 100	–	–	–	> 100	–	> 100	–	> 100	–	> 100	> 100	–	–	–	–	–	> 100	–
CC(=O)c1cc(C(=O)c2ccc3c(c2)Sc2ccccc2N3)c2cc(C)ccn12	0.0965	> 100	0.084	> 100	0.237	> 100	0.0465	> 100	0.0323	0.112	0.233	> 100	4.15	0.183	> 100	–	–	0.036	> 100	0.0386
CC#CC1C2CCCC1(CSc1ccccc1)NC(=O)O2 (centres undefined)	–	> 100	–	–	–	> 100	–	> 100	–	> 100	–	> 100	> 100	–	> 100	–	–	–	> 100	–

From PubChem BioAssay (NCI)
